The text below walks through data of patent publication US11204492B2, “Naphtyl based high index hydrophobic liquids and transmission recovery agents for liquid lens formulations” (CORNING INCORPORATED, priority 2018, dated 2021).

Converted amounts (≈) assume the structure as drawn.

Series [1] in a line: Density of naphthalene based compounds and liquid lens liquids. Also on record: Density at 20° C.: unit not given here. The series is classed as physicochemical. As to conditions: for Density at 20° C.: neat compound.
The nature of the next series: Viscosity at 20° C. The series is classed as physicochemical. The note with it: neat compound. The method, then:
(§1) The following examples represent a variety of liquid lenses prepared according to Varioptic A39N0 design. The Varioptic A39N0 lens design includes a mechanical aperture of about 3.9 mm, a non-conductive fluid layer thickness of about 0.6 mm, and a conductive fluid layer thickness of about 1.8 mm. The properties measured for these electrowetting optical devices were performed at 20° C.
(§2) Example of the naphthalene based compounds disclosed herein have a listing of some of their physical properties listed below.

A short description of series [2]: Refractive index at 589.3 nm. The series is classed as physicochemical. As to conditions: neat compound. The method, then:
as §1, §2

Series [3] is described as follows: Solubility in ethylene glycol. The note with it: organic solvent or mixture.
The next series is described as follows: Solubility in water. The note with it: 20 °C.

`CCCC[Si](C)(C)c1ccc2ccccc2c1` [IX, 2-dimethylbutylsilane naphthalene]: in series [1], the “Density at 20° C.” value is listed as 0.97. In the series “Viscosity at 20° C.”, the “Viscosity at 20° C.” value was 14.9 cSt. For the same compound, the “Index at 589.3 nm/20° C.” value in series [2] is reported as 1.57. Moreover, the solubility in series [3] (20 °C) is 1100 µg/mL (≈ 4.54 mM); in series [3] (85 °C), 2100 µg/mL (≈ 8.66 mM).

As for `[CH3][Ge]([CH3])([CH3])[c]1ccc2ccccc2c1` [VI, 2-trimethylgermane naphthalene], in series [1], the “Density at 20° C.” value came out at 1.19. In addition, in the series “Viscosity at 20° C.”, the “Viscosity at 20° C.” value amounted to 6.1 cSt. For the same compound, the “Index at 589.3 nm/20° C.” value in series [2] was 1.59. Besides, the solubility in the series “Solubility in water” worked out at 6 µg/mL; in series [3] (20 °C), 3400 µg/mL; in series [3] (85 °C) it was 14800 µg/mL.

With `C[CH2][Ge]([CH2]C)([CH2]C)[c]1ccc2ccccc2c1` [VII, 2-triethylgermane naphthalene], the “Density at 20° C.” value in series [1] amounted to 1.14. Besides, the “Viscosity at 20° C.” value in “Viscosity at 20° C.” stood at 10.6 cSt. For the same compound, the “Index at 589.3 nm/20° C.” value in series [2] is 1.58. For the same compound, the results for the solubility in series [3] (20 °C) and in series [3] (85 °C) were 1900 µg/mL and 4200 µg/mL, respectively.

For `C[Si](C)(C)c1ccc2ccccc2c1` [VIII, 2-trimethylsilane naphthalene], the “Density at 20° C.” value in series [1] is given as 1.01. In the series “Viscosity at 20° C.”, the “Viscosity at 20° C.” value was 8.1 cSt. In series [2], the “Index at 589.3 nm/20° C.” value came out at 1.58.

Turning to `c1ccc(Sc2ccc3ccccc3c2)cc1` [X, 2-phenylsulfur naphthalene], the “Density at 20° C.” value in series [1] is recorded as 1.16. Moreover, the “Viscosity at 20° C.” value in the series “Viscosity at 20° C.” is reported as 33.8 cSt. Moreover, the “Index at 589.3 nm/20° C.” value in series [2] was 1.69.

For `CCCCCCCC[Si](C)(C)c1ccc2ccccc2c1` [XI, 2-dimethyloctylsilane naphthalene], in series [1], the “Density at 20° C.” value is 0.95. The “Viscosity at 20° C.” value in the series “Viscosity at 20° C.” worked out at 25.9 cSt. Also, the “Index at 589.3 nm/20° C.” value in series [2] was found to be 1.54. Also, the solubility in series [3] (20 °C) was 440 µg/mL (≈ 1.47 mM); in series [3] (85 °C), 680 µg/mL (≈ 2.28 mM).

As to `Fc1cccc2ccccc12` [XII, 1-fluoronapthalene], the “Density at 20° C.” value in series [1] came out at 1.13. In addition, the “Viscosity at 20° C.” value in “Viscosity at 20° C.” is reported as 2.1 cSt. Also, the “Index at 589.3 nm/20° C.” value in series [2] is on record as 1.59.

Take `CCc1ccc2ccccc2c1` [XIII, 2-ethylnaphthalene]: in series [1], the “Density at 20° C.” value was found to be 1.01. Further, the Density result in series [1] (25° C.) is recorded as “about 1.01 g/cm^3”. For the same compound, in “Viscosity at 20° C.”, the “Viscosity at 20° C.” value came out at 3.9 cSt. In series [2], the “Index at 589.3 nm/20° C.” value is given as 1.61.

Consider `CCCc1ccc2ccccc2c1` [XIV, 2-propylnaphthalene], for which, in series [1], the “Density at 20° C.” value was 0.98. Also, the “Index at 589.3 nm/20° C.” value in series [2] came out at 1.58.

`CCCCCCCCCCCC` [dodecane, reference compound] had a Density in series [1] (comparative aliphatic oil, temperature not given) of 0.75 g/mL.
